Results reported in patent US12653805B2, “Targeting LASP1, eIF4A1, eIF4B and CXC4 with modulators and combinations thereof for cancer therapy” (The University of Toledo, priority 2019, dated 2026).

How the values were obtained:
[1] = test system: BCSCs; conditions: cited from earlier work
[2] = test system: triple-negative breast cancer (TNBC) cells; assay: Cell viability studies with CAST compounds; format: cell-based; conditions: for concentration level at which efficacy on tumor cell viability was shown: TNBC cell viability
[3] = test system: LASP1-eIF4A interaction in 231S cells; assay: Proximity ligation assay (PLA) of LASP1-eIF4A interaction; format: cell-based, human; conditions: 100 nM AMD3465 30 min prior to 20 nM CXCL12 5 min
Description: The Duolink In Situ Orange Fluorescent kit (Sigma/Aldrich, St. Louis, Mo., Cat. No. DUO92102-1KT) was employed to detect the endogenous interaction between LASP1 and eIF4A in situ in 231S cells. The PLA was performed according to the manufacturer's instructions using a rabbit eIF4A1 antibody (Cohesion Biosciences, London, Purley, Cat. No. CQA1180) and a mouse LASP1 antibody (Biolegend, San Diego, Calif., Cat. No. 909301). The single Ab control condition represents the PLA reaction with only the LASP1 antibody. In addition, cells were stained with phalloidin (Life Technologies, Carlsbad, Calif., Cat. No. A12379) and nuclei with DRAQ5 (Thermo Scientific, Rockford, Ill., Cat No. 62251). Cells were stimulated and inhibited as described. Moreover, cells were fixed, stained, and permeabilized with standard methods. The images were acquired by two-photon confocal microscopy and processed with Leica Application Suite X software (Leica, Wetzlar, Germany). Quantification of the interaction dots was performed using ImageJ.

[4] = test system: eIF4F complex in 231S cells; assay: m7GTP pulldown assay (eIF4F complex); format: cell-based, human
Description: 231S cells were serum starved for 1 h and cells were stimulated (and prepared) as described in the co-immunoprecipitation section. 100 nM AMD3465 (CXCR4 antagonist, Sigma-Aldrich, St. Louis, Mo., Cat. No. SML1433-5MG) was incubated 30 min prior to stimulation. 1 mg of total protein lysate in 1 mL of Co-IP buffer was incubated with 25 μL of m7-GTP agarose beads overnight at 4° C. (Jena Biosciences, Jena, Germany, Cat. No. AC-155S). Following incubation, beads were washed with Co-IP buffer. Protein was eluted and analyzed by SDS-PAGE and Western blotting.

[5] = test system: CXCR4 signaling in 231S cells; assay: Western blotting of phosphorylation of eIF4B, PDCD4, 4E-BP1 after CXCR4 activation; format: cell-based, human
Description: Cell lysates were prepared and quantified as described. Western blots were incubated with the following 1° Abs: Cyclin D1 (Cell Signaling Technology, Danvers, Mass., Cat. No. 2922), eIF4A C32B4 (Cell Signaling Technology, Danvers, Mass., Cat. No. 2013), eIF4B 1F5 (Cell Signaling Technology, Danvers, Mass., Cat. No. 13088), p-eIF4B S422 (Thermo Scientific, Rockford, Ill., Cat No. PA5-38362), eIF4E C46H6 (Cell Signaling Technology, Danvers, Mass., Cat. No. 2067), eIF4G C45A4 (Cell Signaling Technology, Danvers, Mass., Cat. No. 2469), GST 26H1 (Cell Signaling Technology, Danvers, Mass., Cat. No. 2624), LASP1 8C6 (Biolegend, San Diego, Calif., Cat. No. 909301), MDM2 SMP14 (Santa Cruz Biotechnology, Dallas, Tex., Cat. No. sc-965), PDCD4 D29C6 (Cell Signaling Technology, Danvers, Mass., Cat. No. 9535), p-PDCD4 S67 (Sigma-Aldrich, St. Louis, Mo., Cat. No. P0072), ROCK1 C8F7 (Cell Signaling Technology, Danvers, Mass., Cat. No. 4035), survivin 71G4B7 (Cell Signaling Technology, Danvers, Mass., Cat. No. 2808), 4E-BP1 53H11 (Cell Signaling Technology, Danvers, Mass., Cat. No. 9644), p-4E-BP1 Thr70 (Cell Signaling Technology, Danvers, Mass., Cat. No. 9455), and β-tubulin D66 (Sigma/Aldrich, St. Louis, Mo., Cat. No. T0198). Following primary incubation, Western blots were incubated with Goat anti-Mouse IgG (H+L) Superclonal™ Secondary Ab conjugated to HRP (Thermo Scientific, Rockford, Ill., Cat No. A28177) or Goat anti-Rabbit IgG (H+L) Superclonal™ Secondary Ab conjugated to HRP (Thermo Scientific, Rockford, Ill., Cat No. A27036). Finally, blots were developed with Amersham™ ECL™ Prime Western Blotting Detection Reagent (GE Healthcare Life Sciences, Pittsburgh, Pa., Cat. No. RPN2232) and HyBlot ES™ Autoradiography Film (Denville Scientific, Swedesboro, N.J., Cat. No. E3212). Densitometry of the Western blots was performed using ImageJ. Calculation of fold change is given in the figure legend for each experiment.

[6] = biological target: T1, eIF4A1 (Homo sapiens, UniProt P60842); format: cell-based; conditions: 3 different TNBC cell lines
T1 construct: A GQ-5′-UTR dual reporter was created in breast cancer cell lines; endogenous in cells
Source text: A GQ-5′-UTR dual reporter was created in breast cancer cell lines which would report either a reduction in td-Tomato fluorescence or luciferase activity if eIF4A1 is inhibited by any of the compounds in the Prestwick library (FIGS. 26A-26B).

[7] = test system: SUM-159-PT TNBC cells; assay: Evaluation of paclitaxel-resistant SUM-159-PT cells; format: cell-based, human
Description: (§1) Briefly, to assess the cell viability, 3×10^3 cells/well (SUM-159PT, SUM Pac 200 nM, MDA-Bone-Un eIF4A CC and KO) were seeded and the cells were allowed to attach and spread overnight under adherent or non-adherent low attachment conditions.

[8] = test system: paclitaxel-resistant SUM-159PT cells; assay: Chemosensitivity to paclitaxel of CRISPR control and eIF4A1-KO cells derived from paclitaxel-resistant SUM-159PT (CellTiter-Glo); format: cell-based, human; conditions: 48 h; for IC50: Homo sapiens, SUM-159-PT
Description: as §1
For generation of CRISPR/Cas9-mediated eIF4A1 knockout (KO), a set of CRISPR/Cas9 plasmids (Santa Cruz, Dallas, Tex., Cat. #—sc-402623) were transfected into therapy-naïve and paclitaxel-resistant tumor cells using UltraCruz reagent (Santa Cruz, Dallas, Tex., Cat. #— sc-395739) following the manufacturer's instructions. After 24 h, the supernatant was removed and replaced with regular media and cells were further cultured for a total of 72 h. eIF4A1 KO cells were sorted out based on the expression of green fluorescent protein (GFP). Single KO cells were isolated by limiting dilution in 96-well plates. The KO was verified by immunoblotting for eIF4A. Non-targeting CRISPR/Cas9 plasmids were employed to obtain the CRISPR-control cells (Santa Cruz, Dallas, Tex., Cat. #—sc-418922).

[9] = test system: SUM-159PT cells; assay: Immunoblotting of SUM-159PT cells after chronic paclitaxel treatment (Pac 200)
[10] = Pac 200 vs therapy naïve SUM-159PT
[11] = paclitaxel-resistant vs therapy-naïve SUM-159-PT

T1 sequence (P60842 whole entry): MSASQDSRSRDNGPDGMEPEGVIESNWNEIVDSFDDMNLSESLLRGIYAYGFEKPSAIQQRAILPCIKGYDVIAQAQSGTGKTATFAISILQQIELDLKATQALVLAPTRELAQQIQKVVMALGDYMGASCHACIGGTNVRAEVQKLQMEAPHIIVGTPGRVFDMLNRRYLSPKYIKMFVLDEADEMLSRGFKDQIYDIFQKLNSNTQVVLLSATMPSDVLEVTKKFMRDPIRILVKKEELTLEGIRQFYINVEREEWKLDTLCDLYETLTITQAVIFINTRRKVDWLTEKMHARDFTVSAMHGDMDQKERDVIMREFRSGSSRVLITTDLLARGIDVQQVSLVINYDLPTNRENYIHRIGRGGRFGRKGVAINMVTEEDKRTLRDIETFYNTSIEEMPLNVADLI

O=C(O)C(Cc1ccccc1[N+](=O)[O-])=NNc1nc(-c2ccc(Cl)c(Cl)c2)cs1 (mixture of isomers) [4EGI-1]
NANOG, OCT4 levels ([1]; 4EGI-1 treated BCSCs): downregulated | proliferation of BCSCs [1]: effectively inhibited

O=C(N/C(=C/c1cccnc1)c1nc2ccccc2[nH]1)c1cccc(Br)c1 [AE-848/14270010]
cytotoxicity at 50 µM ([2]; CRISPR/control cells, lowest concentration of 50 μM, read-out: loss of viability of TNBC cells): ~35% | viability at 50 µM ([2]; LASP1-knockout cells, 50 μM): 50% | loss of viability ([2]; LASP1 genetically knocked out): 50% | concentration level at which efficacy on tumor cell viability was shown [2]: 50 µM | cell viability change ([2]; eIF4A1 knocked out cells): gain in viability

c1ccc(CNCc2ccc(CN3CCCNCCNCCCNCC3)cc2)nc1 [AMD3465]
LASP1-eIF4A interaction dots (interactions/cell) [3]: 13.3±10.2 dots | effect on peak eIF4G recruitment at 5 min of CXCL12 ([4]; 100 nM AMD3465): reduced | effect on CXCL12-dependent recruitment of LASP1 at 5 min ([4]; pre-treatment 100 nM AMD3465): abrogated | effect on CXCL12-induced increase in p-eIF4B levels at 10 min ([5]; AMD3465): abrogated | effect on CXCL12-induced increase in pT70-4E-BP1 levels ([5]; AMD3465): abrogated | effect on CXCL12-induced increase in pS67-PDCD4 level at 5 min ([5]; AMD3465 pretreatment): abrogated

Clc1ccccc1COc1ccc2ccccc2c1CNCc1cccnc1 [AN-465/41673523]
concentration level at which efficacy on tumor cell viability was shown [2]: 75 µM

C[C@]12CC[C@H](O)C[C@H]1CC[C@@H]1[C@@H]2CC[C@]2(C)[C@@H](C3=CC(=O)OC3)CC[C@]12O [digitoxigenin]
activity of eIF4A1 [6]: potently inhibited

COc1cccc2c1C(=O)c1c(O)c3c(c(O)c1C2=O)C[C@@](O)(C(=O)CO)C[C@@H]3O[C@H]1C[C@H](N)[C@H](O)[C@H](C)O1 [doxorubicin]
cross-resistance of paclitaxel-resistant cells ([7]; paclitaxel-resistant SUM-159-PT cells): cross-resistant

CC(=O)O[C@H]1C[C@H](O[C@H]2[C@@H](O)C[C@H](O[C@H]3[C@@H](O)C[C@H](O[C@H]4CC[C@@]5(C)[C@H](CC[C@@H]6[C@@H]5C[C@@H](O)[C@]5(C)[C@@H](C7=CC(=O)OC7)CC[C@]65O)C4)O[C@@H]3C)O[C@@H]2C)O[C@H](C)[C@H]1O[C@@H]1O[C@H](CO)[C@@H](O)[C@H](O)[C@H]1O [lanotoside C]
activity of eIF4A1 [6]: potently inhibited

CC(=O)O[C@H]1C(=O)[C@@]2(C)[C@H]([C@H](OC(=O)c3ccccc3)[C@]3(O)C[C@H](OC(=O)[C@H](O)[C@@H](NC(=O)c4ccccc4)c4ccccc4)C(C)=C1C3(C)C)[C@]1(OC(C)=O)CO[C@@H]1C[C@@H]2O [paclitaxel]
IC50 ([7]; Homo sapiens, SUM-159-PT, parental SUM-159-PT cells, paclitaxel): 2 nM | resistance factor ([7]; paclitaxel-resistant vs parental SUM-159-PT): 675.5 fold | IC50 ([8]; CRISPR-control SUM-159PT cells (from Pac 200)): 904 nM | IC50 ([8]; eIF4A1-KO cells (from Pac 200)): 609 nM | change in IC50, eIF4A1-KO vs CRISPR-control ([8]; paclitaxel): −1.5 fold | enhanced expression of Cyclin D3 [9, 10]: 2.7 fold | enhanced expression of NANOG [9, 10]: 1.4 fold | enhanced expression of OCT4 [9, 10]: 3 fold | enhanced expression of SOX2 [9, 10]: 2.7 fold | enhanced expression of survivin or BIRC5 [9, 10]: 4 fold | increase in ABCB1 (P-glycoprotein, MDR1) protein level [9, 10]: 10.8 fold | increase in ABCG2 (BCRP) protein level [9, 10]: 2.4 fold | increase in ALDH1A1 level [9, 10]: 2.4 fold | increase in CD44 level [9, 10]: 6.1 fold | increase in expression of eIF4A [9, 10]: 25.8 fold | enhanced expression of ROCK1 ([9]; Pac 200 vs therapy naïve SUM-159PT, not statistically significant): 1.5 fold | expression of E-cadherin [9, 11]: decreasing trend | increase in Snail1 protein level [9, 11]: 2 fold | increase in ABCB1 protein level, independent verification ([9]; three biological replicates, p<0.0001): 14 fold | increase in ABCG2 protein level, independent verification ([9]; three biological replicates, p<0.001): 4 fold
